Consider 50 compounds from publication PMC9579956 (RSC Medicinal Chemistry, 2022).

The target of the experiment is Mycobacterium thermoresistible (Mtr) LpqY (Mycolicibacterium thermoresistibile, UniProt G7CES0). It is filed as binding. As to conditions: for Pathogen Box screen signal/noise ratio: single dose MST screen against LpqY.
Mycobacterium thermoresistible (Mtr) LpqY, sequence (G7CES0 29-471): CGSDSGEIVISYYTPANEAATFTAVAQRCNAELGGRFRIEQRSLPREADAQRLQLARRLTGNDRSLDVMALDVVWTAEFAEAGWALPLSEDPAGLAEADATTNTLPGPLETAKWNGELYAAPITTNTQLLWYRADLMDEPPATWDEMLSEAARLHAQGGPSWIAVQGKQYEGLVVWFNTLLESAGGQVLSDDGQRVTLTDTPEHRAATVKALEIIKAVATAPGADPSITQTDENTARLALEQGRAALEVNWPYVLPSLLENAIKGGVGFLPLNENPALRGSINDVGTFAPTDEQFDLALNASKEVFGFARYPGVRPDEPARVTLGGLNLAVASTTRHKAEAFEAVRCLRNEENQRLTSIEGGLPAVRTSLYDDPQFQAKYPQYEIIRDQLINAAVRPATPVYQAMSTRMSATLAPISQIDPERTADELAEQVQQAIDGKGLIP

In the case of `CCc1nn(C)c(C(=O)NCc2ccc(Oc3ccc(C)cc3)cc2)c1Cl` [MMV688934], the “Pathogen Box screen signal/noise ratio” value amounted to 1.5.

With `NC(=O)c1cc(-c2ccsc2)ccc1OCCOc1ccccc1` [MMV687138], the “Pathogen Box screen signal/noise ratio” value turned out to be 1.8. `NS(=O)(=O)c1cccc(-c2ccc3ncc(N4CCOCC4)nc3c2)c1` [MMV023860]: the “Pathogen Box screen signal/noise ratio” value stood at 1.6.

On to `CCOc1ccccc1NC(C)C(=O)Nc1cc(C(F)(F)F)ccc1N1CCOCC1` (stereo not drawn) [MMV407834], for which the “Pathogen Box screen signal/noise ratio” value is on record as 2.3. The same measure, in the same setting: in the case of `O=C1O[C@@H](CO)CN1c1cc(F)c(C2=CCN(Cc3ccccc3)CC2)c(F)c1` [MMV687729] it was 1.5; in that of `O=C(Nc1ccc(N2CCNCC2)cc1)c1ccn2ncc(-c3cccc(Cl)c3)c2n1` [MMV022478], 2.0. As for `CCC(Sc1nc2ccccc2o1)C(=O)Nc1nnc(C)s1` (stereo not drawn) [MMV611037], the “Pathogen Box screen signal/noise ratio” value came out at 0.9.

As for `CCc1ccc(C(NCc2nc(N)nc(N(C)C)n2)C(C)C)cc1` (stereo not drawn) [MMV1019989], the “Pathogen Box screen signal/noise ratio” value stood at 0.5.

As to `COc1cccn2c(C(=O)N3CCCCC3)c(C(F)(F)F)nc12` [MMV1110498], the “Pathogen Box screen signal/noise ratio” value stood at 1.5. In the case of `c1ccc(-c2cc(N3CCCCC3)c3ccccc3n2)nc1` [MMV560185], the “Pathogen Box screen signal/noise ratio” value stood at 0.7.

As to `CC(C)N=c1cc2n(-c3ccc(Cl)cc3)c3ccccc3nc-2cc1Nc1ccc(Cl)cc1` [MMV687800], the “Pathogen Box screen signal/noise ratio” value is 0.6. With `COc1cccc(-c2nc3c(N4CCCC4)cccc3n2CC2CCCN2)n1` (stereo not drawn) [MMV687703], the “Pathogen Box screen signal/noise ratio” value is recorded as 1.3. Regarding `NC(=O)c1cc(Br)ccc1OCCOc1ccccc1` [MMV687243], the “Pathogen Box screen signal/noise ratio” value turned out to be 0.4. Take `Cc1cc(C)cc(COc2ccc3c(C)c(CCC(=O)O)c(=O)oc3c2C)c1` [MMV676476]: the “Pathogen Box screen signal/noise ratio” value amounted to 2.7. As for `Cc1nc(-c2cccc(NCc3ccccc3)c2)[nH]c1C` [MMV023227], the “Pathogen Box screen signal/noise ratio” value turned out to be 1.4. Regarding `Cc1noc(C)c1C(=O)N1CCCC(c2[nH]c3c(C)cccc3c2-c2ccncc2)C1` (stereo not drawn) [MMV020623], the “Pathogen Box screen signal/noise ratio” value was determined as 2.5.

On to `O=C(Nc1c(O)cccc1-c1nc2c(C(=O)O)cccc2o1)c1cc(-c2ccccc2)on1` [MMV676008], for which the “Pathogen Box screen signal/noise ratio” value was 1.7. For `CN1CCCN(C(c2ccccc2)c2ccc(Cl)cc2)CC1` (stereo not drawn) [MMV004168], the “Pathogen Box screen signal/noise ratio” value is 0.9. Consider `Cc1cc(C)nc(-n2nc(C)cc2Nc2ccccc2)n1` [MMV062221], for which the “Pathogen Box screen signal/noise ratio” value is reported as 0.8. For `COC(=O)C1=C(C)NC(C)=C(C(=O)OC(C)C)C1c1cccc2nonc12` (stereo not drawn) [MMV001493], the “Pathogen Box screen signal/noise ratio” value amounted to 1.1. For `COc1cccc(NC(=O)c2c(NC(=O)c3cccnc3)sc3c2CCC3)c1` [MMV228911], the “Pathogen Box screen signal/noise ratio” value is 2.2.

In the case of `Cc1ccc2[nH]c3c(NCCN(C)C)ncnc3c2c1` [MMV006372], the “Pathogen Box screen signal/noise ratio” value is 0.333. In the case of `CC1COC(Cn2cncn2)(c2ccc(Oc3ccc(Cl)cc3)cc2Cl)O1` (stereo not drawn) [MMV688943], the “Pathogen Box screen signal/noise ratio” value is recorded as 0.75. Consider `CCC(C)NC(=O)c1ccc(NC(=O)C2(c3ccccc3)CCCC2)cc1` (stereo not drawn) [MMV146306], for which the “Pathogen Box screen signal/noise ratio” value is on record as -0.653.

In the case of `CNC(=O)CNc1nc(-c2ccccn2)nc2scc(-c3ccccc3)c12` [MMV1029203], the “Pathogen Box screen signal/noise ratio” value came to 0.463. As for `CN1CCN(S(=O)(=O)c2ccc(-c3ccc4c(Nc5ncc(Cl)cn5)ccnc4c3)cc2)CC1` [MMV688283], the “Pathogen Box screen signal/noise ratio” value is reported as 1.8. On the same count and under the same terms, with `Cc1[nH]c2ccccc2c1C(c1cccs1)N1CCN(C)CC1` (stereo not drawn) [MMV688768] the figure was 2.1; with `CCc1ccc([C@@H]2C[C@H](C(F)(F)F)n3ncc(C(=O)NCc4ccc(OC)cc4)c3N2)cc1` [MMV687180], 1.9; with `Cc1ncc(-c2ccnc(Nc3ccc(S(C)(=O)=O)cc3)n2)n1C(C)C` [MMV676604], 4.2.

As to `CC(C(=O)N1CCCC1)N1CCN(S(=O)(=O)c2ccc(C(C)(C)C)cc2)CC1` (stereo not drawn) [MMV020291], the “Pathogen Box screen signal/noise ratio” value is recorded as 1.8.

As for `CN1CCN(CCCOc2ncc(Nc3ncc(-c4ccc(C(F)(F)F)c(F)c4)nc3C(N)=O)cn2)CC1` [MMV687812], the “Pathogen Box screen signal/noise ratio” value was found to be 4.1.

In the case of `COc1cccc(CC(=O)N2CCC(n3c(C)nc4ccc(F)cc43)CC2)c1` [MMV020081], the “Pathogen Box screen signal/noise ratio” value stood at 0.152.

`COc1cc(C2=NCCN2)ccc1-c1cn(-c2cccc(C3=NCCN3)c2)nn1` [MMV688407, 4-[4-(4,5-dihydro-1H-imidazol-2-yl)-2-methoxyphenyl]-1-[3-(4,5-dihydro-1H-imidazol-2-yl)phenyl]triazole]: the “Pathogen Box screen signal/noise ratio” value turned out to be 8.0. Under “compound 100 μM, LpqY 500 nM, 10% DMSO, duplicate”, the “Screen signal/noise ratio (MST S/N)” value stood at 8.0. On to `CC(C)(C)OC(=O)N1CCN(c2nccc(-c3ccc(-c4ccc(Cl)cc4)s3)n2)CC1` [MMV688416], for which the “Pathogen Box screen signal/noise ratio” value is recorded as 0.333. Turning to `Cc1ccc(S(=O)(=O)n2cc(-c3ccnc(N)c3)c3cc(Br)cnc32)cc1` [MMV024114], the “Pathogen Box screen signal/noise ratio” value came out at 1.1. For the compound `CC(C)(C)C(=O)N(CCCCCCN1C[C@H](O)[C@@H](O)[C@H](O)[C@H]1CO)C1CCCCCC1` [MMV688543], the “Pathogen Box screen signal/noise ratio” value is listed as 1.3. With `OC[C@H]1O[C@@H](n2c3ccc(Cl)cc3c3c(-c4cc5ccccc5o4)ncnc32)C(O)[C@H]1O` (stereo partly drawn) [MMV688921], the “Pathogen Box screen signal/noise ratio” value was found to be 1.1. Consider `CC(C)(C)n1nc(-c2ccccc2)c2c(N)ncnc21` [MMV688548], for which the “Pathogen Box screen signal/noise ratio” value amounted to 1.0. With `CNc1cc(C)nc(C2CN(C(=O)c3n[nH]c4ccccc34)CCO2)c1` (stereo not drawn) [MMV689709], the “Pathogen Box screen signal/noise ratio” value is 2.1. For the compound `O=C(Nc1cnc2ccccc2c1)c1cccc(-n2cnnn2)c1` [MMV084864], the “Pathogen Box screen signal/noise ratio” value is listed as 1.5.

For `O=C(Nc1ccccc1-c1nc2c(C(=O)O)cccc2o1)c1ccccc1` [MMV676162], the “Pathogen Box screen signal/noise ratio” value is recorded as 0.9. As to `CCOC(=O)c1noc(N)c1-c1ccccc1` [MMV1236379], the “Pathogen Box screen signal/noise ratio” value was determined as 1.2. For `CS(=O)(=O)N1CCC(CCn2nc(Cc3cccc4ccccc34)c3c(N)ncnc32)CC1` [MMV688470], the “Pathogen Box screen signal/noise ratio” value was 0.75. Take `COC(=O)c1c(NC(=O)c2cc3ccccc3oc2=O)sc2c1CCN(Cc1ccccc1)C2` [MMV676480]: the “Pathogen Box screen signal/noise ratio” value is 1.3. On the same count and under the same terms, in the case of `Nc1nccc2ccc(Oc3ccncc3)cc12` [MMV026313] it was 1.4; in that of `CN1CCC(NCc2cccc(-c3ccc(S(=O)(=O)NCc4ccccc4)cc3)c2)CC1` [MMV022029], -0.0167. As to `Cc1cc(C(=O)Nc2cnn(Cc3ccc(Cl)cc3Cl)c2)no1` [MMV009054], the “Pathogen Box screen signal/noise ratio” value is recorded as 0.179. On the same count and under the same terms, with `CC(C)n1nc(-c2cc3c(Cl)cccc3[nH]2)c2c(N)ncnc21` [MMV688417] the figure was 1.3; with `CC(C)(C(=O)Nc1ccc(F)cc1)n1cc(-c2ccccc2F)cn1` [MMV687239], 0.467; with `CC(=O)NCC1CN(c2ccc(-c3ccc(CO)cc3)c(F)c2)C(=O)O1` (stereo not drawn) [MMV688508], 0.8.
